Read-outs that look alike come from different tables or passages of the source.
Target: T1, human TREK-1 (Homo sapiens, UniProt O95069)
T1 construct: expressed in transfected cells
T1 sequence (O95069 1-426): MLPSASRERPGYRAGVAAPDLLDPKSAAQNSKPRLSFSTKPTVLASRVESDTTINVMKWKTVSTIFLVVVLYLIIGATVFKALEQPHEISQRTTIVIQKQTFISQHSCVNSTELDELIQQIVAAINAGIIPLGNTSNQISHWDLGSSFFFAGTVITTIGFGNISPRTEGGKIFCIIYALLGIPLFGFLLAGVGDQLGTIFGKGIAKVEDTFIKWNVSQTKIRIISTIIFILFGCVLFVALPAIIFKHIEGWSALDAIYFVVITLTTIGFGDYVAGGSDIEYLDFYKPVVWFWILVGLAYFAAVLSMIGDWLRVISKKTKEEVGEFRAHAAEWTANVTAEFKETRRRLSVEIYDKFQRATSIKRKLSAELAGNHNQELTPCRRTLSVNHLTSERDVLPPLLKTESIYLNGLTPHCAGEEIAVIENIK
Test: thallium flux assay (TREK1 activation normalized to BL-1249)
Type: cell-based
Details: for activation at 30 µM: concentration of Example compound 30 μM
Protocol: The term “thallium flux assay” herein refers to a fluorescence-based assay used to monitor the activity of TREK channels. Thallium is a congener of potassium that readily fluxes through the pore of TREK channels. Thallium flux is measured using a commercially available, thallium-sensitive fluorescent dye called Thallos. The detail method is described below.
Method 1 (Thallium Flux Assay);
CHO-K1 cells stably expressing human TREK-1 or HEK293 cells stably expressing human TREK-2 are plated in 384-well plates, cultured overnight, loaded with Thallos dye the following day, treated with test compounds for 10 min, and then treated with thallium stimulus buffer to initiate thallium flux. The change in fluorescence at 25 seconds after thallium addition is normalized to baseline fluorescence (fluorescent intensity at 25 sec after Tl^+ addition)/(average of fluorescent intensity at pre-read).

[1] = concentration of Example compound 10 μM, normalized to 10 μM BL-1249, CHO-K1 cells stably expressing human TREK-1, read-out: TREK1 activation RBL-1249 (%)
[2] = normalized to 10 μM BL-1249, CHO-K1 cells stably expressing human TREK-1, read-out: TREK1 activation RBL-1249 (%)

Row | Compound | activation at 10 µM [1] | activation at 30 µM [2] | also measured
1 | COc1cc(OC(F)(F)F)ccc1CNC(=O)c1ccc(-n2cccn2)cc1 [Example 2-41, N-[2-methoxy-4-(trifluoromethoxy)benzyl]-4-(1H-pyrazol-1-yl)benzamide] | 63% |  | 
2 | O=C(NCc1ccc(OC(F)(F)F)cc1)c1ccc(-c2ncccn2)cc1 [Example 2-47, 4-(2-pyrimidinyl)-N-[4-(trifluoromethoxy)benzyl]benzamide] | 44% |  | 
3 | O=C(NCc1ccc(Br)cc1Cl)c1ccc(-c2ncn[nH]2)cc1 [Example 2-49, N-(4-bromo-2-chlorobenzyl)-4-(1H-1,2,4-triazol-5-yl)benzamide] | 84% |  | 
4 | COc1cc(OC(F)(F)F)ccc1CNC(=O)c1ccc(-c2noc(=O)[nH]2)cc1 [Example 4, N-[2-Methoxy-4-(trifluoromethoxy)benzyl]-4-(5-oxo-4,5-dihydro-1,2,4-oxadiazol-3-yl)benzamide] |  | 77% | 
5 | COc1cc(OC(F)(F)F)ccc1CNC(=O)c1ccc(-c2nnn[nH]2)cc1 [Example 5, N-[2-Methoxy-4-(trifluoromethoxy)benzyl]-4-(1H-tetrazol-5-yl)benzamide] |  | 79% | 
6 | O=C(Cc1ccc(OC(F)(F)F)cc1F)Nc1ccc2ncnn2c1 [Example 6, 2-[2-Fluoro-4-(trifluoromethoxy)phenyl]-N-([1,2,4]triazolo[1,5-a]pyridin-6-yl)acetamide] |  | 19% | 
7 | O=C(NCc1ccc(Cl)cc1Cl)c1ccc(CN2CCOCC2)cc1 [Example 7, N-(2,4-Dichlorobenzyl)-4-(4-morpholinomethyl)benzamide] |  | 38% | 
8 | O=C(NCc1ccc(OC(F)(F)F)cc1Cl)c1ccn2cnnc2c1 [Example 9, N-[[2-Chloro-4-(trifluoromethoxy)phenyl]methyl]-[1,2,4]triazolo[4,3-a]pyridine-7-carboxamide] | 99% |  | 
9 | O=C(NCc1ccc(OC(F)(F)F)cc1Cl)c1ccc2ncnn2c1 [Example 9-2, N-[[2-chloro-4-(trifluoromethoxy)phenyl]methyl]-[1,2,4]triazolo[1,5-a]pyridine-6-carboxamide] |  |  | activation at 10 µM (CHO-K1, read-out: TREK1 activation RBL-1249 (%)): 106%

The next lines start with results.

Row | activation at 10 µM [1] | activation at 30 µM [2] | Compound | also measured
10 |  | 41% | Cc1cc(C(=O)NCc2ccc(Br)cc2Cl)cn2ncnc12 [Example 3-2, N-(4-bromo-2-chlorobenzyl)-8-methyl[1,2,4]triazolo[1,5-a]pyridine-6-carboxamide] | 
11 | 67% |  | Cc1nnc2cc(C(=O)NCc3ccc(OC(F)(F)F)c(F)c3)ccn12 [Example 3-3, N-[3-fluoro-4-(trifluoromethoxy)benzyl]-3-methyl[1,2,4]triazolo[4,3-a]pyridine-7-carboxamide] | 
12 | 89% |  | Cc1nc2ccc(C(=O)NCc3ccc(OC(F)(F)F)cc3C)cn2n1 [Example 3-4, 2-methyl-N-[2-methyl-4-(trifluoromethoxy)benzyl][1,2,4]triazolo[1,5-a]pyridine-6-carboxamide] | 
13 | 89% |  | Cc1cc(OC(F)(F)F)ccc1CNC(=O)c1ccn2c(C)nnc2c1 [Example 3-5, 3-methyl-N-[2-methyl-4-(trifluoromethoxy)benzyl][1,2,4]triazolo[4,3-a]pyridine-7-carboxamide] | 
14 |  | 34% | CS(=O)(=O)N1CCOc2cc(C(=O)NCc3ccc(Br)cc3Cl)ccc21 [Example 3-10, N-(4-bromo-2-chlorobenzyl)-4-(methylsulfonyl)-3,4-dihydro-2H-1,4-benzoxazine-7-carboxamide] | 
15 |  | 48% | COc1cc(OC(F)(F)F)ccc1CNC(=O)c1ccc(NS(C)(=O)=O)nc1 [Example 8-2, N-[2-methoxy-4-(trifluoromethoxy)benzyl]-6-[(methylsulfonyl)amino]nicotinamide] | 
16 | 87% |  | Cn1nnc2cc(C(=O)NCc3ccc(OC(F)(F)F)cc3Cl)ccc21 [Example 9-4, N-[[2-chloro-4-(trifluoromethoxy)phenyl]methyl]-1-methylbenzotriazole-5-carboxamide] | 
17 | 125% |  | O=C(NCc1ccc(OC(F)(F)F)cc1Cl)c1ccc2[nH]nnc2c1 [Example 9-7, N-[[2-chloro-4-(trifluoromethoxy)phenyl]methyl]-1H-benzotriazole-5-carboxamide] | 

Reference: patent publication US11851428B2, “Activator of TREK (TWIK RElated K+channels) channels” (ONO PHARMACEUTICAL CO., LTD., priority 2016, dated 2023)
